The supplement of paper PMC5908809

Columns and labels:
[1] = test system: normal NK cells expanded with K562-aAPC; assay: percent inhibition of viability; higher = more inhibition; settings: 72 h, IL-2 2.5 ng/mL
Protocol: (§1)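 Drug sensitivity and resistance testing on K562-aAPC-expanded normal NK cells: 5 concentrations (10-fold steps over a 10,000-fold range), 72 h at 37 °C, viability by CellTiter-Glo normalised to DMSO and benzethonium chloride controls; DSS from the fitted curve.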

[2] = test system: DERL-7 (IL-2 2.5 ng/mL); assay: as above; settings: 72 h
[3] = test system: IMC-1 (IL-2 20 ng/mL); assay: as above; settings: 72 h
[4] = test system: KAI3 (IL-2 2.5 ng/mL); assay: as above; settings: 72 h
[5] = test system: KHYG-1 (IL-2 2.5 ng/mL); assay: as above; settings: 72 h
[6] = test system: NK-92 (IL-2 2.5 ng/mL); assay: as above; settings: 72 h
[7] = test system: NK-YS (IL-2 2.5 ng/mL); assay: as above; settings: 72 h
[8] = test system: NKL (IL-2 2.5 ng/mL); assay: as above; settings: 72 h
[9] = test system: SNK-6 (IL-2 2.5 ng/mL); assay: as above; settings: 72 h
[10] = test system: YT (IL-2 2.5 ng/mL); assay: as above; settings: 72 h
[11] = test system: normal primary NK cells, pool 1 (3 donors) (IL-2 2.5 ng/mL); assay: as above; settings: 72 h
[12] = test system: normal primary NK cells, pool 1 (3 donors), resting (IL-2 0 ng/mL); assay: as above; settings: 72 h
[13] = test system: normal primary NK cells, pool 2 (3 donors) (IL-2 2.5 ng/mL); assay: as above; settings: 72 h
[14] = test system: normal primary NK cells, pool 3 (3 donors) (IL-2 2.5 ng/mL); assay: as above; settings: 72 h
[15] = test system: normal NK cells expanded with K562-aAPC; assay: drug sensitivity score (DSS) (DSS units); higher = more sensitive; extreme values may be limits of the assay; settings: 72 h; IL-2 2.5 ng/mL
Protocol: as §1

[16] = test system: DERL-7 (IL-2 2.5 ng/mL); assay: as above; settings: 72 h
[17] = test system: IMC-1 (IL-2 20 ng/mL); assay: as above; settings: 72 h
[18] = test system: KAI3 (IL-2 2.5 ng/mL); assay: as above; settings: 72 h
[19] = test system: KHYG-1 (IL-2 2.5 ng/mL); assay: as above; settings: 72 h
[20] = test system: NK-92 (IL-2 2.5 ng/mL); assay: as above; settings: 72 h
[21] = test system: NK-YS (IL-2 2.5 ng/mL); assay: as above; settings: 72 h
[22] = test system: NKL (IL-2 2.5 ng/mL); assay: as above; settings: 72 h
[23] = test system: SNK-6 (IL-2 2.5 ng/mL); assay: as above; settings: 72 h
[24] = test system: YT (IL-2 2.5 ng/mL); assay: as above; settings: 72 h
[25] = test system: normal primary NK cells, pool 1 (3 donors) (IL-2 2.5 ng/mL); assay: as above; settings: 72 h
[26] = test system: normal primary NK cells, pool 1 (3 donors), resting (IL-2 0 ng/mL); assay: as above; settings: 72 h
[27] = test system: normal primary NK cells, pool 2 (3 donors) (IL-2 2.5 ng/mL); assay: as above; settings: 72 h
[28] = test system: normal primary NK cells, pool 3 (3 donors) (IL-2 2.5 ng/mL); assay: as above; settings: 72 h
[29] = test system: NKL (IL-2 2.5 ng/mL); assay: relative IC50 (inflection point of fitted viability curve, relative to fitted max inhibition); higher = less sensitive; settings: 72 h
Protocol: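 Drug sensitivity and resistance testing: 5 concentrations over a 10,000-fold range, 72 h at 37 °C, viability by CellTiter-Glo normalised to DMSO and benzethonium chloride controls. IC50 is the inflection point of a logistic fit (min fixed at 0, max fitted), so it is relative to the fitted maximal inhibition. Kept only where fitted max inhibition is at least 50%.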

OCCn1cc(-c2cnc3nnn(Cc4ccc5ncccc5c4)c3n2)cn1 (max concentration tested 2500 nM)
percent inhibition of viability [%]
Settings | 0.25 nM | 2.5 nM | 25 nM | 250 nM | 2500 nM
[1] | -1.81 | -5.59 | -1.09 | 4.36 | 10.7
[2] | -0.9 | -0.84 | 0.34 | -3 | -8.26
[3] | -3.49 | 3.05 | -2.66 | 5.69 | 6.58
[4] | -0.76 | -5.72 | 5.28 | 8.13 | 18.2
[5] | -6.94 | -4.08 | -4.27 | 1.49 | 7.29
[6] | -3.39 | 13.7 | -1.59 | 11.9 | 33.2
[7] | -3.62 | -4.61 | -4.57 | 1.28 | 16.9
[8] | -0.17 | 5.36 | 16.3 | 12 | 17.6
[9] | -14.8 | -17.6 | -15.8 | -7.55 | 1.66
[10] | -6.67 | -5.28 | -6.34 | -0.92 | 12.8
[11] | -4.03 | 5.55 | 18.1 | 6.24 | 10.1
[12] | -7.9 | 6.66 | 4.48 | 7.02 | 11.4
[13] | -2.43 | 3.77 | 5.1 | -2.16 | 4.71
[14] | -4.09 | 3.45 | 7.9 | -5.94 | 7.18

Settings | drug sensitivity score
[15] | 0.06
[16] | 0
[17] | 0
[18] | 0.81
[19] | 0
[20] | 3.17
[21] | 0.5
[22] | 3.7
[23] | 0
[24] | 0.06
[25] | 0.34
[26] | 0.02
[27] | 0
[28] | 0

Cc1cc(Nc2cc(N3CCN(C)CC3)nc(/C=C/c3ccccc3)n2)n[nH]1 [ENMD-2076] (max concentration tested 10000 nM)
percent inhibition of viability [%]
Settings | 1 nM | 10 nM | 100 nM | 1000 nM | 10000 nM
[1] | 2.38 | -3.79 | 7 | 60.5 | 99.8
[2] | -3.97 | 1.55 | 8.93 | 73.3 | 100
[3] | 5.76 | 6.97 | 6.68 | 69 | 99.3
[4] | 11.4 | 13.8 | 24.2 | 81.2 | 103
[5] | 3.13 | 4.35 | 5.27 | 79.3 | 103
[6] | 11.8 | 8.87 | 7.47 | 52.2 | 100
[7] | 4 | 7.48 | 10.6 | 76.2 | 84.6
[8] | 2.47 | 5.63 | 17.7 | 61.2 | 96.1
[9] | 5.5 | 2.27 | -27.8 | 68.5 | 79.8
[10] | 5.28 | 5.36 | 3.17 | 31.5 | 101
[11] | -3.71 | -10.8 | -1.53 | 25 | 93.9
[12] | -0.34 | -9.97 | -7.43 | 16.7 | 80.9
[13] | -1.71 | 3 | 0.94 | 31 | 89.3
[14] | -2.94 | -6.14 | -2.82 | 14.7 | 96.1

Settings | drug sensitivity score
[15] | 12.9
[16] | 15
[17] | 14.2
[18] | 18.1
[19] | 15.4
[20] | 11.8
[21] | 15.4
[22] | 14
[23] | 12.2
[24] | 10.1
[25] | 8.98
[26] | 7.17
[27] | 9.3
[28] | 7.76

Cc1nc(Nc2ncc(C(=O)Nc3c(C)cccc3Cl)s2)cc(N2CCN(CCO)CC2)n1 [Dasatinib]
Settings | relative IC50 [µM]
[29] | 0.0498

COc1cc2ncnc(Oc3cccc(NC(=O)Nc4cc(C(C)(C)C(F)(F)F)on4)c3)c2cc1OC (max concentration tested 10000 nM)
percent inhibition of viability [%]
Settings | 1 nM | 10 nM | 100 nM | 1000 nM | 10000 nM
[1] | -1.51 | -5.86 | -2.54 | 20.8 | 24.9
[2] | -5.16 | 6.23 | -3 | 4.56 | -7.99
[3] | -1.62 | -0.53 | 0.44 | -4.34 | 6.15
[4] | 0.98 | -5.32 | 2.9 | 6.52 | 22.6
[5] | -4.24 | 2.96 | 2.93 | 12.8 | 22.6
[6] | -0.01 | 2.35 | -2.76 | 14.8 | 28.1
[7] | -5.12 | -3.89 | 6.64 | 10.2 | 22.5
[8] | 4.1 | 2.39 | 15.8 | 41.7 | 42.7
[9] | -21 | -20.4 | -14.8 | -14.3 | -12
[10] | -6.09 | 0.07 | -0.35 | 27.3 | 17.8
[11] | -8.45 | 9.57 | -3.9 | 2.93 | 0.51
[12] | -30.4 | 6.49 | -14 | -6.06 | -6.31
[13] | -11.8 | 4.36 | -8.21 | -2.04 | -8.58
[14] | -10.2 | 8.96 | -2.46 | -8.5 | -3.67

Settings | drug sensitivity score
[15] | 3.18
[16] | 0
[17] | 0
[18] | 1.44
[19] | 1.77
[20] | 2.92
[21] | 1.47
[22] | 9.3
[23] | 0
[24] | 4.37
[25] | 0
[26] | 0
[27] | 0
[28] | 0

CCCCC/C=C/C=C1/C(=O)C=C[C@@H]1C/C=C\CCCC(=O)O [15D-PGJ2] (max concentration tested 3000 nM)
percent inhibition of viability [%]
Settings | 0.3 nM | 3 nM | 30 nM | 300 nM | 3000 nM
[1] | -3.92 | -2.07 | 0.09 | 7.83 | 19.8
[2] | 3.37 | -0.28 | -1.84 | -0.56 | 14.4
[3] | -2.09 | 2.04 | 0.05 | 5.09 | 1.41
[4] | -4.96 | -2.91 | -5.31 | -1.28 | 16.5
[5] | -5.02 | 1.78 | 4.62 | 3.59 | 4.59
[6] | -11 | -12 | -5.46 | 5.82 | 13.3
[7] | 2.56 | 5.36 | 6.24 | 9.44 | 10.4
[8] | -9.35 | -3.21 | -6.49 | 3.89 | -15.1
[9] | 1.92 | 3.18 | 18.9 | 6.05 | 19.9
[10] | -2.94 | -0.98 | -4.25 | -6.3 | 12.1
[11] | 8.24 | -4.33 | -3.39 | -9.81 | 14
[12] | 6.38 | -19 | 3.5 | -8.64 | 11.8
[13] | -13.3 | -1.17 | 5.71 | 0.83 | 16.9
[14] | -15.9 | -3.38 | 4.01 | -2.88 | 14.8

Settings | drug sensitivity score
[15] | 1.44
[16] | 0.17
[17] | 0
[18] | 0.28
[19] | 0
[20] | 0.46
[21] | 0
[22] | 0
[23] | 1.74
[24] | 0.01
[25] | 0.07
[26] | 0
[27] | 0.45
[28] | 0.13

O=C(O)CNC(=O)c1c(O)c2ccccc2n(Cc2ccccc2)c1=O [IOX-2] (max concentration tested 50000 nM)
percent inhibition of viability [%]
Settings | 5 nM | 50 nM | 500 nM | 5000 nM | 50000 nM
[1] | -0.06 | 6.04 | 5.91 | 6.68 | 23.3
[2] | -0.5 | 5.58 | 5.28 | -4.63 | 25.8
[3] | 1.88 | 0.96 | 5.1 | 6.24 | 28.9
[4] | -3.52 | 1.05 | 2.47 | -3.92 | 11.8
[5] | 1.01 | 1.23 | 3.87 | 2.07 | 14.3
[6] | -8.34 | -11.4 | 3.46 | -6.86 | 24.2
[7] | 0.04 | -3.4 | 4.58 | -1.43 | 25.9
[8] | -6.3 | -1.48 | -3.38 | 1.11 | 28.3
[9] | 5.46 | -1.31 | -7.77 | 8.49 | 43.1
[10] | -1.09 | -0.73 | 1.54 | -7.45 | 15.8
[11] | 3.1 | -5.28 | -1.2 | -0.54 | 6.1
[12] | 1.89 | -6.6 | 3 | -20.1 | 3.21
[13] | -14.4 | 0.63 | -2.21 | -3.15 | 4.77
[14] | -6.36 | 0.19 | 2.86 | -4.87 | 13.1

Settings | drug sensitivity score
[15] | 1.12
[16] | 0.77
[17] | 2.14
[18] | 0.01
[19] | 0.37
[20] | 0.62
[21] | 0.91
[22] | 1.32
[23] | 3.58
[24] | 0.14
[25] | 0
[26] | 0
[27] | 0
[28] | 0.04
